Measured values reported in PubChem BioAssay AID2060501 (Molecular Pharmacology Branch, DTP, NCI, 2025).
Values belong to the compound of their own block, whether it stands above or below them.

Test system: 282377-053-R-J1-PDC complex spheroids, viability
Assay: Anticancer human tumor 282377-053-R-J1-PDC patient-derived colon adenocarcinoma cell line growth inhibition [GQUAD]
Settings: for IC50: curve of first compound; for viability, T/C: stronger effect = lower value
In short: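 Tumor cells were grown as complex spheroids with HUVEC endothelial cells and mesenchymal stem cells as stroma. G-quadruplex stabilizers were combined with targeted agents over half-log dilutions from near the clinical Cmax, or from 10 microM.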

[1] = second compound 0.0316 µM, first compound 0.0316 µM
[2] = second compound 0.0316 µM, first compound 0.1 µM
[3] = second compound 0.0316 µM, first compound 0.316 µM
[4] = second compound 0.0316 µM, first compound 1 µM
[5] = second compound 0.0316 µM, first compound 3.16 µM
[6] = second compound 0.0316 µM, first compound 10 µM
[7] = second compound 0.1 µM, first compound 0.0316 µM
[8] = second compound 0.1 µM, first compound 0.1 µM
[9] = second compound 0.1 µM, first compound 0.316 µM
[10] = second compound 0.1 µM, first compound 1 µM
[11] = second compound 0.1 µM, first compound 3.16 µM
[12] = second compound 0.1 µM, first compound 10 µM
[13] = second compound 0.316 µM, first compound 0.0316 µM
[14] = second compound 0.316 µM, first compound 0.1 µM
[15] = second compound 0.316 µM, first compound 0.316 µM
[16] = second compound 0.316 µM, first compound 1 µM
[17] = second compound 0.316 µM, first compound 3.16 µM
[18] = second compound 0.316 µM, first compound 10 µM
[19] = second compound 1 µM, first compound 0.0316 µM
[20] = second compound 1 µM, first compound 0.1 µM
[21] = second compound 1 µM, first compound 0.316 µM
[22] = second compound 1 µM, first compound 1 µM
[23] = second compound 1 µM, first compound 3.16 µM
[24] = second compound 1 µM, first compound 10 µM
[25] = second compound 3.16 µM, first compound 0.0316 µM
[26] = second compound 3.16 µM, first compound 0.1 µM
[27] = second compound 3.16 µM, first compound 0.316 µM
[28] = second compound 3.16 µM, first compound 1 µM
[29] = second compound 3.16 µM, first compound 3.16 µM
[30] = second compound 3.16 µM, first compound 10 µM
[31] = second compound 10 µM, first compound 0.0316 µM
[32] = second compound 10 µM, first compound 0.1 µM
[33] = second compound 10 µM, first compound 0.316 µM
[34] = second compound 10 µM, first compound 1 µM
[35] = second compound 10 µM, first compound 3.16 µM
[36] = second compound 10 µM, first compound 10 µM
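Also: spheroids exposed to compounds for 7 days before readout.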
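For viability, T/C in this document: percent of vehicle DMSO control viability with 100% = untreated-like growth.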

IC50 (second compound 0.0316 µM): > 10000 nM
IC50 (second compound 0.1 µM): > 10000 nM
IC50 (second compound 0.316 µM): > 10000 nM
IC50 (second compound 1 µM): < 31.6 nM
IC50 (second compound 3.16 µM): < 31.6 nM
IC50 (second compound 10 µM): < 31.6 nM
SMILES: CC(C)n1c(=O)n(C)c2cnc3cc(F)c(-c4ccc(OCCCN5CCCCC5)nc4)cc3c21 + Cc1cnc(CNC(=O)c2c(=O)c3ccc(N4CCCN(C)CC4)nc3n3c2sc2ccccc23)cn1
viability, T/C [1]: 101%
viability, T/C [2]: 76.5%
viability, T/C [3]: 102%
viability, T/C [4]: 76.5%
viability, T/C [5]: 94%
viability, T/C [6]: 86.5%
viability, T/C [7]: 84.7%
viability, T/C [8]: 80.2%
viability, T/C [9]: 81.3%
viability, T/C [10]: 90.2%
viability, T/C [11]: 83.7%
viability, T/C [12]: 72.6%
viability, T/C [13]: 69.2%
viability, T/C [14]: 61.9%
viability, T/C [15]: 70.9%
viability, T/C [16]: 76.2%
viability, T/C [17]: 78.5%
viability, T/C [18]: 64.2%
viability, T/C [19]: 47.4%
viability, T/C [20]: 48.3%
viability, T/C [21]: 49.9%
viability, T/C [22]: 46.6%
viability, T/C [23]: 56.8%
viability, T/C [24]: 67.7%
viability, T/C [25]: 48.9%
viability, T/C [26]: 45.8%
viability, T/C [27]: 51.6%
viability, T/C [28]: 43.7%
viability, T/C [29]: 53.5%
viability, T/C [30]: 45.9%
viability, T/C [31]: 44.6%
viability, T/C [32]: 33.5%
viability, T/C [33]: 39.9%
viability, T/C [34]: 45%
viability, T/C [35]: 40.6%
viability, T/C [36]: 23.5%

IC50 (second compound 0.0316 µM): 134 nM
IC50 (second compound 0.1 µM): 73.9 nM
IC50 (second compound 0.316 µM): < 31.6 nM
IC50 (second compound 1 µM): < 31.6 nM
IC50 (second compound 3.16 µM): < 31.6 nM
IC50 (second compound 10 µM): < 31.6 nM
SMILES: CC1COCCN1c1cc(C2(O)CC3CCC(C2)O3)c2cnn(-c3ccn[nH]3)c2n1 (stereo unspecified) + Cc1cnc(CNC(=O)c2c(=O)c3ccc(N4CCCN(C)CC4)nc3n3c2sc2ccccc23)cn1
viability, T/C [1]: 96.4%
viability, T/C [2]: 49.5%
viability, T/C [3]: 39.7%
viability, T/C [4]: 24.6%
viability, T/C [5]: 20.5%
viability, T/C [6]: 12.6%
viability, T/C [7]: 71.9%
viability, T/C [8]: 41.3%
viability, T/C [9]: 27.6%
viability, T/C [10]: 26.8%
viability, T/C [11]: 21.8%
viability, T/C [12]: 15.1%
viability, T/C [13]: 50.1%
viability, T/C [14]: 34.8%
viability, T/C [15]: 28.8%
viability, T/C [16]: 22.9%
viability, T/C [17]: 17.7%
viability, T/C [18]: 15%
viability, T/C [19]: 42%
viability, T/C [20]: 25.9%
viability, T/C [21]: 28.7%
viability, T/C [22]: 23.1%
viability, T/C [23]: 21.8%
viability, T/C [24]: 14.3%
viability, T/C [25]: 33.6%
viability, T/C [26]: 23.4%
viability, T/C [27]: 23.8%
viability, T/C [28]: 21.7%
viability, T/C [29]: 18.6%
viability, T/C [30]: 10.6%
viability, T/C [31]: 32.8%
viability, T/C [32]: 20.1%
viability, T/C [33]: 22.2%
viability, T/C [34]: 18%
viability, T/C [35]: 17%
viability, T/C [36]: 0.6%

IC50 (second compound 0.0316 µM): 36.9 nM
IC50 (second compound 0.1 µM): 49.8 nM
IC50 (second compound 0.316 µM): 24.8 nM
IC50 (second compound 1 µM): 8.72 nM
IC50 (second compound 3.16 µM): < 0.999 nM
IC50 (second compound 10 µM): < 0.999 nM
SMILES: CCc1c2c(nc3ccc(O)cc13)-c1cc3c(c(=O)n1C2)COC(=O)[C@]3(O)CC + Cc1cnc(CNC(=O)c2c(=O)c3ccc(N4CCCN(C)CC4)nc3n3c2sc2ccccc23)cn1
viability, T/C (second compound 0.0316 µM, first compound 0.000999 µM): 117%
viability, T/C (second compound 0.0316 µM, first compound 0.00316 µM): 96.3%
viability, T/C (second compound 0.0316 µM, first compound 0.00999 µM): 57.4%
viability, T/C [1]: 56.4%
viability, T/C (second compound 0.0316 µM, first compound 0.0999 µM): 43.5%
viability, T/C [3]: 27.2%
viability, T/C (second compound 0.1 µM, first compound 0.000999 µM): 88.4%
viability, T/C (second compound 0.1 µM, first compound 0.00316 µM): 79.4%
viability, T/C (second compound 0.1 µM, first compound 0.00999 µM): 57.3%
viability, T/C [7]: 59.4%
viability, T/C (second compound 0.1 µM, first compound 0.0999 µM): 46.5%
viability, T/C [9]: 27.9%
viability, T/C (second compound 0.316 µM, first compound 0.000999 µM): 81.8%
viability, T/C (second compound 0.316 µM, first compound 0.00316 µM): 67.9%
viability, T/C (second compound 0.316 µM, first compound 0.00999 µM): 55%
viability, T/C [13]: 51.5%
viability, T/C (second compound 0.316 µM, first compound 0.0999 µM): 38.5%
viability, T/C [15]: 28.8%
viability, T/C (second compound 1 µM, first compound 0.000999 µM): 66%
viability, T/C (second compound 1 µM, first compound 0.00316 µM): 58.1%
viability, T/C (second compound 1 µM, first compound 0.00999 µM): 44.4%
viability, T/C [19]: 42.9%
viability, T/C (second compound 1 µM, first compound 0.0999 µM): 35.9%
viability, T/C [21]: 25.1%
viability, T/C (second compound 3.16 µM, first compound 0.000999 µM): 46.6%
viability, T/C (second compound 3.16 µM, first compound 0.00316 µM): 41.5%
viability, T/C (second compound 3.16 µM, first compound 0.00999 µM): 37.5%
viability, T/C [25]: 40.9%
viability, T/C (second compound 3.16 µM, first compound 0.0999 µM): 33.4%
viability, T/C [27]: 19.4%
viability, T/C (second compound 10 µM, first compound 0.000999 µM): 46.6%
viability, T/C (second compound 10 µM, first compound 0.00316 µM): 38.4%
viability, T/C (second compound 10 µM, first compound 0.00999 µM): 38.9%
viability, T/C [31]: 40.9%
viability, T/C (second compound 10 µM, first compound 0.0999 µM): 32.6%
viability, T/C [33]: 11.1%
